Several values for one entry are separate records, joined by “and”; a condition that tells them apart may be missing. Equal entries are not always repeated.
Columns and labels:
[1] = Human liver microsome metabolic stability; assay type: in vitro ADME; conditions: for half-life at 1 µM: human, liver microsomes, human liver microsomes, read-out: HLM T1/2
Text: Liver microsomes which are subcellular particles derived from endoplasmic reticulum of hepatic cells were used for evaluating the tested compounds. These particles are rich in drug metabolizing enzymes, including the cytochrome p-450 family. Liver microsomes are a recommended test system for various in vitro drug metabolism and pharmacokinetics (DMPK) studies. CLint values lower than […] are considered suitable for drug development.
Liver Microsome Metabolic Stability Assay (NADPH): The liver microsome stability assay was evaluated through pre-incubation with HLMs. A liver microsome mixture (pooled from multiple donors) at a concentration of 0.5 mg/mL, and the test compound at a concentration of 1 μM, were warmed in the presence of a NADPH regenerating system (about 1.0 mM) at 37° C. Positive controls, including testosterone (a CYP3A4 substrate), propafenone (a CYP2D6 substrate), and diclofenac (a CYP2C9) substrate, were concurrently incubated with the HLMs, in the presence of the NADPH regenerating system (1.0 mM). Samples were extracted during incubation at multiple intervals: 0, 5, 15, 30, 45 and 60 minutes. To terminate the reactions, the samples were promptly mixed with cooled acetonitrile that included an internal standard (IS). An additional compound was incubated with the HLMs in the absence of the NADPH regeneration system, from which a sample was taken at the 60-minute interval.
The clearance of the test compound in the samples was subsequently analyzed by LC-MS/MS based on the peak area ratios of the analyte to the IS.
The following equation was used to calculate the microsome clearance: […]
Liver weight: 40 grams/kg, 30 grams/kg, 32 grams/kg, 20 grams/kg and 88 grams/kg, for rat, monkey, dog, human and mouse, respectively.

[2] = Log D, 1-octanol/buffer shake flask; assay type: physicochemical; conditions: 1-octanol/phosphate buffer, pH 7.4; read-out: LogD
Procedure: The Log D assay was a miniaturized 1-octanol/buffer shake flask method followed by LC/MS/MS analysis, as follows.
The test compounds or control compounds Nadolol, Chlorpromazine Hydrochloride and Propranolol Hydrochloride were dissolved in 100% DMSO to obtain 10 mM solutions, which were transferred to 96-well polypropylene cluster tubes; 2 μL/well. 1-octanol saturated with 0.1 M phosphate buffer (149 μL/well) and 0.1 M phosphate buffer saturated with 1-octanol (149 μL/well) were added to the tubes, respectively, and each tube was vigorously mixed for 2 minutes and then shaked at a speed of 800 rpm at room temperature for 1 hour, followed by centrifugation at 4000 rpm for 5 minutes at room temperature. Thereafter, for the test compounds and the Chlorpromazine Hydrochloride and Propranolol Hydrochloride, the sample of the buffer layer was diluted by a factor of 50-fold and the sample of 1-octanol layer was diluted by a factor of 2000-fold with internal standard (IS) solution. For Nadolol, the sample of the buffer layer was diluted by a factor of 1000-fold and the sample of 1-octanol layer was diluted by a factor of 400-fold with internal standard (IS) solution. The samples were analyzed using a triple quadrupole mass spectrometer. Peak areas were corrected by dilution factors and embedded internal standard, and the ratio of the corrected peak areas was used to calculate the Log D value. The Log D value for each compound will be calculated by the following equation: […]

[3] = Metabolite identification (Met-ID), human hepatocytes; assay type: in vitro ADME; conditions: human hepatocytes
Procedure: Cell culture and incubation: Cryopreserved hepatocyte cells, from human and rat sources, were purchased from commercial sources or in-house production, and were cultured in Williams' Medium E supplemented with glutamine and HEPES, in a humidified 5% CO2 incubator at 37° C., to a cell density of […]. Then, solutions of test compounds at a concentration of 10 μM, or 7-Ethoxycoumarin, as a positive control, at a concentration of 30 μM, in Eagle's Minimum Essential Medium, Catalog No. 30-2003 (ATCC) supplemented with 20% fetal bovine serum, were introduced and the mixture was incubated for 120 minutes, or other specified time points.
The samples were analyzed for metabolites using an LC-MS method developed on […] and PDA systems. Comparative analyses of mass spectra and ion fragmentation between the parent compound and its metabolites were carried out, and metabolic profiling was determined using the mass spectrometric and/or PDA (UV) response. Hypothetical structures of metabolites and their metabolic pathways were proposed.

[4] = Bidirectional permeability in Caco-2 cells; assay type: in vitro ADME, human; conditions: human, Caco-2, pH 7.4, 2.00 μM
Procedure: Cell culture: Caco-2 cells (ATCC) were seeded onto polycarbonate (PC) membranes in 96-well insert plates. The cells were cultured in media for 21-28 days prior to performing the transport assays.
Validation of monolayer integrity: Once the Caco-2 cells formed a confluent monolayer, their integrity was evaluated using a Lucifer yellow rejection assay. The monolayer integrity was further evaluated by measuring, in duplicate wells, the unidirectional (A→B) permeability of nadolol (a low permeability marker) and metoprolol (a high permeability marker), as well as bidirectional permeability of digoxin (a P-glycoprotein substrate marker).
Assay: The compounds were assayed under bidirectional transport conditions (A→B and B→A) at a concentration of 2.00 μM (with DMSO≤1.0%), using a transport buffer composed of HBSS containing 10.0 mM HEPES, pH 7.40±0.05. The incubation was carried out at 37° C., with 5.0% CO2 and relatively saturated humidity for 2 hours.
The dosing solution was spiked and mixed with the transport buffer and a Stop Solution (containing an internal standard (IS)) to create a T0 sample.
Sample analysis: Following the incubation, all of the samples were analyzed using LC-MS/MS. The concentrations of the test compounds were expressed as peak area ratios of the analytes versus the IS.

hTRPV1 = target: T1, hTRPV1 (Homo sapiens, UniProt Q8NER1); test: hTRPV1 dual activity electrophysiology, CHO cells co-expressing hKv7.2/3 and hTRPV1; assay type: cell-based; conditions: Dual hTRPV1 / Dual Expressing CHO, CAP IC50, Kv7.2/3 co-expressed and activated, capsaicin
T1 construct: CDS of NM_080704.4, inserted into the multiple cloning site of pcDNA3.1(+); host or cells: CHO/hKv7.2/3
Procedure: Cell culture and DNA transfection: CHO/hKv7.2/3 cells were transfected with hTRPV1 DNA constructs (CDS of NM_080704.4, inserted into the multiple cloning site of pcDNA3.1(+) between the Hind III and BamH I restriction site, Genscript). For CHO transfection, 1×10^6 cells were suspended in a reaction mix (Amaxa™ 4D-Nucleofector™-LONZA) containing 5 μg of hTRPV1 DNA and 0.5 μg of GFP DNA (for cells selection) in a cuvette.
The cells were transformed (Amaxa, DT-133 program for CHO transfection with p-3 Kit) and recovered for 10 minutes at RT in the hood. Then cells were re-suspended in a 10 mL antibiotic (Ab)-free medium suspension and were plated on Gelatin or PLL-coated cover glass in different cell densities. On the next morning, the medium was changed to full medium containing the CHO/hKv7.2/3 cell line selection antibiotics.
Extracellular (Bath) solution: The solution was composed of (in mM): NaCl, 140; KCl, 4; CaCl2, 1.8; MgCl2, 1.2; Glucose, 11; HEPES, 5.5. pH was adjusted to 7.3 with NaOH. Osmolarity was adjusted to 310 mOsm with Sucrose.
Intracellular (Pipette) solution: Pipettes were pulled from borosilicate glass (Warner Instrument Corp, USA) with a resistance of 3-7 MΩ and were filled with internal solution composed of (in mM): KCl, 130; MgCl2, 1; K ATP, 5; EGTA, 5; HEPES, 10. pH was adjusted to 7.3 with KOH. Osmolarity was adjusted to 290 mOsm with Sucrose.
A programmable valve-linked pressurized perfusion system was used for local application of compounds nearby the cell recorded in a consistent flow rate of 2-3 mL/minute. Series resistance was corrected and data were sampled at 5 kHz and low pass filtered at 2.4 kHz using MultiClamp 700B amplifier with pCLAMP11 software (Molecular Devices, USA).
At least 48 hours following cell transfection and plating, cells were recorded to assess the TRPV1 dual activity. Membrane potential was held at −90 mV. To measure the inhibitory effects of the tested compounds on hTRPV1 dual activity the following protocol was performed:
Cells were perfused with vehicle-only containing bath solution. After 30 seconds, a single −40 mV 1.5 second step was applied for Kv7.2/3 activation and 30 seconds later capsaicin (1 μM) was applied for 6 seconds to activate the TRPV1.
Cells perfusion was changed to a compound-containing bath solution, and after 2 minutes and 30 seconds of compound application, a single −40 mV 1.5 second step was applied for Kv7.2/3 activation and 30 seconds later capsaicin (1 μM) was applied for 6 seconds to activate the TRPV1.
Cells perfusion was thereafter changed back to vehicle only-containing bath solution. After 30 seconds, a single −40 mV 1.5 step was applied for Kv7.2/3 activation and 30 seconds later capsaicin (1 μM) was applied for 6 seconds to activate the TRPV1 followed by a capsaicin wash out.
The drug current response, when capsaicin was injected following 3 minutes of pre-incubation with the test compound, was divided by the averaged control currents, induced without compound, before compound incubation and following its washout, to evaluate the drug/control response.

In vitro micronucleus = assay type: cell-based; conditions: hamster, cho-k1 cells
Procedure: (§1) The micronucleus assay was performed according to the regulatory guidelines. In brief, CHO-K1 cells were plated at 10000 cells/well in 3 plates and incubated In CHO-K1 growth medium (containing F12K, 10% FBS and 1% PS) overnight.
(§2) As a control for the S9 treatment, plate No. 1, cells were treated with cyclophosphamide as a positive control, for 3 hours. For plate No. 2, without S9 treatment, cells were treated with mitomycin C as a positive control, compounds for 3 hours, and for plate No. 3, without S9 treatment, cells were treated with bleomycin sulfate as a positive control continuously for 24 hours.
(§3) On the following day, 6 μg/mL of cytochalasin B were added to each well and plates were further incubated overnight. In the day after medium was replaced with a combined 10 μg/mL Hoechst dye solution and 0.5 μM calcein-AM in 100 μL warm DPBS for 30 minutes and the plates were scanned using CQ1 high-content analysis system.

CHO-K1 cells = test: In vitro micronucleus; assay type: cell-based; conditions: hamster
Procedure: as §1, §2, §3

[5] = tested on: Spared Nerve Injury (SNI) rats; test: Spared Nerve Injury (SNI) model, von Frey; assay type: in vivo, rat; conditions: rat, in vivo
Procedure: All animal experiments were carried out according to the Guide for the Care and Use of Laboratory Animals (2011 edition) and approved by the Israel National Institutional Animal Care and Use Committee (IACUC). Young adult male SD rats (Envigo RMS, Israel), were used for in vivo efficacy: Spared Nerve Injury (SNI), Distal Tibial Injury (DTI) and Post-operative Pain (POP), 200-220 grams, Chronic Post-Ischemia Pain (CPIP) 275-325 grams, Monosodium iodoacetate-induced osteoarthritis (MIA-OA) 180-220 grams; for in vivo safety: 200-250 grams at study initiation. […] The health status of the animals used in this study was examined upon their arrival. Only animals in good health were acclimatized to laboratory conditions and were used in the studies. All studies were performed following at least five days of animal acclimation. During acclimation and throughout the entire study duration, animals were housed within a limited-access rodent facility and kept in groups with a maximum of 2-3 rats per polypropylene cage. The cages were fitted with solid bottoms and filled with sterile wood shavings as bedding material. Animals were provided ad libitum with a commercial, sterile rodent diet and had free access to drinking water that was supplied to each cage via polyethylene bottles with stainless steel sipper tubes. A feed lot analysis of the diet batch used in the study was included in the archives with the study data. Water was monitored periodically. Plastic cylinders for playing and hiding and wooden balls or sticks were added to the cages for environmental enrichment.
SNI: The SNI procedure consisted of ligating and dissecting the tibial and common peroneal nerves, thus sparing the sural nerve. Prior to surgery, a dose of 0.03 mg/kg buprenorphine (Temgesic®) was administered to animals as a prophylaxis to alleviate the operative and postoperative pain unrelated to neuropathy. Next, animals were anesthetized with a combination of medetomidine/ketamine sodium IP. While under anesthesia a medio caudal incision of 4-5 mm parallel to the left femur was cut on shaved and disinfected skin. The sciatic nerve was exposed from underneath the muscle layer and isolated gently from the surrounding connective tissue, using curved and blunt forceps. The tibial and common peroneal nerves were first tightly ligated with double knot of 6-0 silk suture, proximally and immediately distal to the sciatic bifurcation. Thereafter, the nerves which run as a pair as physically attached to each other were cut at sites close to the ligatures, thereby removing a length of approximately 0.5 mm of the nerves, necessary to avoid the formation of any re-connection to the nerves. This procedure led to complete denervation of areas of tibial and peroneal innervation in the plantar paw, while neuropathy was developed upon the sural territories. Special care was taken not to manipulate the sural nerve, which thus was left intact. The muscle layers and skin were sutured, and animals were allowed to recover. 0.03 mg/kg buprenorphine SC was administered on postoperative days 1-2, every 12 hours, starting from the evening of Day 0. Rehydration with 4 ml of sterile saline IP was provided directly after the surgery, continuing twice a day for 7 days. The sural nerve innervates the lateral longitudinal third of the plantar paw and therefore, mechanical sensitivity was assessed in this area.
The selection of animals was performed on day 13 post-operation before animals were placed in their experimental groups. Animals with a pain threshold of <4 grams for an operated leg following Von Frey testing were included in the study. To form homogenous treatment groups, all the selected animals were grouped using a random sampling method on study day 13, to form groups with similar pain threshold mean. For blinding purposes, the researcher who dosed the animals with test items was different than the researcher who conducted the VF tests. […]

T1 sequence (Q8NER1 whole entry): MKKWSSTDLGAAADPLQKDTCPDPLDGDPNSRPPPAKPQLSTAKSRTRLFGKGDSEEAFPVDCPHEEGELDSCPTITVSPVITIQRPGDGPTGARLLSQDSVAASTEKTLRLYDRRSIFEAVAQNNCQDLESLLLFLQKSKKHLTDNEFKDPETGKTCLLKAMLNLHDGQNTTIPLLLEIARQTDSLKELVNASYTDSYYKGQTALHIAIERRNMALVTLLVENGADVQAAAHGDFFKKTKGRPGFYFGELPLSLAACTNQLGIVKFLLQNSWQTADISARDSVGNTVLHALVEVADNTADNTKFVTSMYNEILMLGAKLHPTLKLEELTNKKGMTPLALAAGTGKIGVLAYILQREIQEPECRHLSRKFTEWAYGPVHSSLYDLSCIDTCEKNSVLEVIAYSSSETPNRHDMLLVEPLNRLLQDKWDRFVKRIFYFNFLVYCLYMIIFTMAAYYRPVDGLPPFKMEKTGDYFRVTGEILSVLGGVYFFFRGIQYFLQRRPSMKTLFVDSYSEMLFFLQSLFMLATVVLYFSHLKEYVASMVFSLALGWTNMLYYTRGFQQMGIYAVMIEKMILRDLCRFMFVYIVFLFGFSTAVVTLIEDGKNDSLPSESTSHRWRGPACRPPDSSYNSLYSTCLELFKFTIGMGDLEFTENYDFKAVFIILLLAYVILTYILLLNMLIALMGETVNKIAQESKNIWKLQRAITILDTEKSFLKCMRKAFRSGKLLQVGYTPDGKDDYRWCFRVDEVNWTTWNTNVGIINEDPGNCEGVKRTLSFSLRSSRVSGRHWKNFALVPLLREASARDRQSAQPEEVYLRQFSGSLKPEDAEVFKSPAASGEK

SMILES: O=C(Cc1cc(-n2cc(Cl)c3cc(Cl)cc(Cl)c32)cnn1)N[C@@H]1COC[C@H]1O [Compound 830]
- HLM and/or Rat PK clearance rates compared to compound 661 [1]: improved HLM and/or Rat PK clearance rates compared to compound 661
- half-life at 1 µM [1]: 58.1 min
- logD [2]: 3.2
- Human Hepatocytes MetID (glutathione conjugation) [3]: did not indicate the presence of glutathione conjugation
- efflux ratio at 2 h, 2 µM [4]: 84

SMILES: O=C(Cc1cc(-n2cc(Cl)c3cc(Cl)cc(Cl)c32)ncn1)N[C@@H]1COC[C@H]1O [Compound 840]
- IC50 (hTRPV1): 0.479 µM
- HLM and/or Rat PK clearance rates compared to compound 661 [1]: improved HLM and/or Rat PK clearance rates compared to compound 661
- half-life at 1 µM [1]: 52 min
- logD [2]: 3.63
- Human Hepatocytes MetID (glutathione conjugation) [3]: did not indicate the presence of glutathione conjugation and None
- efflux ratio at 2 h, 2 µM [4]: 5.4

SMILES: O=P1(N(CCCl)CCCl)NCCCO1 (centres unmarked) [Cyclophosphamide, reference compound]
- CC50 at 3 h (In vitro micronucleus): 41.4 µM
- Micronucleus response Absolute MEC (CHO-K1 cells): >400 µM

SMILES: CC(C)C[C@H](CN)CC(=O)O [Pregabalin, reference compound]
- Reversal of PWT [5]: 61% and 50%
